{"source": "ChEMBL document CHEMBL1201862", "about": "“PubChem BioAssay data set” (2004)", "key": {"[1]": {"target": "Acyl-homoserine lactone acylase PvdQ (Pseudomonas aeruginosa (strain LESB58), UniProt Q9I194)", "assay": "P. aeruginosa PvdQ acylase inhibitors, dose response, biochemical, fluorescence, plate reader and imaging, cherry-picks (AID 493231)"}, "[2]": {"assay": "ZM109 Env clade C HIV-1 fusion inhibitors, dose response, HeLa effector, CEM target cells, luciferase, cherry-pick (AID 652058)", "assay_type": "functional, cell-based"}, "[3]": {"assay": "non-specific cell cytotoxicity, dose response, cytotoxicity control for PAX8 inhibitor project, plate reader, dry powder samples (AID 743021)", "assay_type": "functional, cell-based"}, "[4]": {"assay": "inhibitors of HIV Env-driven cell fusion, dose response, cherry-pick (AID 652057)", "assay_type": "functional, cell-based"}, "[5]": {"assay": "inhibitors of clade B AD8 Env fusion, dose response, cell-based, cherry-pick (AID 652062);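 further: potency is for inhibitors of fusion seen as a drop in luminescence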", "assay_type": "functional"}, "[6]": {"assay": "inhibition of ADP-Glo detection reagents, dose response, artefact control for CDK5 inhibitor project, biochemical, luminescence, cherry-picked samples, set 2 (AID 504546)", "assay_type": "functional"}, "[7]": {"assay": "CEM21 lymphoblast cell cytotoxicity, dose response, cytotoxicity control for viral fusion inhibitor project, CellTiter-Glo luminescence, cherry-picked (AID 652042);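 further: potency for signal decrease meaning cytotoxicity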", "assay_type": "functional, cell-based"}, "[8]": {"assay": "off-target signal loss in HeLa-CEM21 co-culture – HeLa F-luc CTL cells, cherry-picked, counter-screen for HIV-1 Env fusion inhibitor project, dose response (AID 652040);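 further: potency for signal decrease marking cytotoxic or nonspecific inhibition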", "assay_type": "functional, cell-based"}, "[9]": {"assay": "Luminescence Cell-Based Dose Confirmation HTS to Identify Inhibitors of Platelet Dense Granule Release. [Related pubchem assays: 1663 (Primary HTS), 1678 (Summary of Project)]", "assay_type": "functional"}, "[10]": {"assay": "cytotoxicity in HPDE-C7 cells, cell-based, fluorescence, HTS (AID 430)", "assay_type": "functional", "conditions": "Homo sapiens"}, "[11]": {"assay": "cytotoxicity in KRAS-transformed pancreatic duct cells, primary screen, cell-based, fluorescence, HTS (AID 431);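 further: cell line used: HPDE-C7K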", "assay_type": "functional", "conditions": "Homo sapiens"}, "[12]": {"target": "Neurotensin receptor type 1 (Homo sapiens, UniProt P30989)", "assay_type": "functional"}, "Cytochrome P450 2D6": {"target": "Cytochrome P450 2D6 (Homo sapiens, UniProt P10635)", "assay": "qHTS Assay for Inhibitors and Substrates of Cytochrome P450 2D6. [Related pubchem assays: 410 ]", "assay_type": "ADME", "conditions": "read-out: Potency"}, "Cytochrome P450 2C9": {"target": "Cytochrome P450 2C9 (Homo sapiens, UniProt P11712)", "conditions": "Potency"}, "Streptococcus": {"tested_on": "Streptococcus", "assay": "Group A Streptococcus viability loss, dose response, counter-screen for streptokinase expression inhibitor project, luminescence, BacTiterGlo (AID 1915);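 further: potency for reduction of bacterial viability or growth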", "assay_type": "functional, organism-based"}, "[13]": {"assay": "Artemis endonuclease inhibitor potency, dose response, biochemical, fluorescence intensity (AID 720701);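 further: Artemis endonuclease enzyme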", "assay_type": "functional"}, "[14]": {"tested_on": "Streptococcus sp. 'group A'", "assay": "growth inhibition of control SK(-) GAS strain, dose response, counter-screen for streptokinase expression inhibitor project, luminescence, kanamycin, BacTiterGlo, confirmation (AID 1900)", "assay_type": "functional, organism-based"}, "Streptokinase A": {"target": "T1, Streptokinase A (Streptococcus pyogenes serotype M1, UniProt P10520)", "T1 sequence (P10520 whole entry)": "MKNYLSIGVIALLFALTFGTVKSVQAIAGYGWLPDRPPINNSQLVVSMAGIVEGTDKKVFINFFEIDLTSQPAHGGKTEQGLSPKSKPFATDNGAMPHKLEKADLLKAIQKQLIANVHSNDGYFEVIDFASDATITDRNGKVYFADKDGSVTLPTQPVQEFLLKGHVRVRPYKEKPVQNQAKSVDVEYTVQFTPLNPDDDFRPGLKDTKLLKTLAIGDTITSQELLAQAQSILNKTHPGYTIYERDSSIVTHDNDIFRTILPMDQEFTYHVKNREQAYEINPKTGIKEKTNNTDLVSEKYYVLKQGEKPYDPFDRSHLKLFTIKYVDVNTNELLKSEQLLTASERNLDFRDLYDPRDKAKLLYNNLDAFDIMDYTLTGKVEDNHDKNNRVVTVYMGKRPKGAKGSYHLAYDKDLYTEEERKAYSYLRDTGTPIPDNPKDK", "assay": "S. pyogenes streptokinase expression inhibitors, potency, dose response, plasminogen activation absorbance, OD405 (AID 1914);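 further: secreted streptokinase activity via plasminogen activation per viability signal from cell pellet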", "assay_type": "functional, Streptococcus pyogenes M1 GAS"}, "Nonstructural protein 1": {"target": "Nonstructural protein 1 (Influenza A virus, UniProt Q194T2)", "assay_type": "functional, Influenza A virus (A/California/07/2009(H1N1))"}, "[15]": {"target": "FAD-linked sulfhydryl oxidase ALR (Homo sapiens, UniProt P55789)", "assay": "inhibitors of human ALR sulfhydryl oxidase, dose response, biochemical, H2O2 detection, luminescence, cherry-pick (AID 493248)"}, "[16]": {"target": "Transitional endoplasmic reticulum ATPase (Homo sapiens, UniProt P55072)", "assay": "p97 ATPase inhibitors, dose response, biochemical (AID 1534)"}, "[17]": {"target": "Transitional endoplasmic reticulum ATPase (Homo sapiens, UniProt P55072, C522A)", "assay": "C522A mutant p97 ATPase inhibitors, dose response, counter-screen for p97 inhibitor project, biochemical, luminescence (AID 1544)"}, "[18]": {"target": "T2, Eukaryotic translation initiation factor 2-alpha kinase 3 (Homo sapiens, UniProt Q9NZJ5)", "assay": "Dose response cell-based high-throughput screening assay to measure PERK inhibition. [Related pubchem assays: 1416 ]", "assay_type": "functional"}, "[19]": {"target": "T2, Eukaryotic translation initiation factor 2-alpha kinase 3", "assay": "Counterscreen assay for PERK inhibitors: Dose response cell-based high throughput screening assay to measure inhibition of PERK at 6 hours. [Related pubchem assays: 1522, 1416 ]", "assay_type": "functional"}, "[20]": {"target": "T3, Alkaline phosphatase, tissue-nonspecific isozyme (Homo sapiens, UniProt P05186)", "T3 sequence (P05186 whole entry)": "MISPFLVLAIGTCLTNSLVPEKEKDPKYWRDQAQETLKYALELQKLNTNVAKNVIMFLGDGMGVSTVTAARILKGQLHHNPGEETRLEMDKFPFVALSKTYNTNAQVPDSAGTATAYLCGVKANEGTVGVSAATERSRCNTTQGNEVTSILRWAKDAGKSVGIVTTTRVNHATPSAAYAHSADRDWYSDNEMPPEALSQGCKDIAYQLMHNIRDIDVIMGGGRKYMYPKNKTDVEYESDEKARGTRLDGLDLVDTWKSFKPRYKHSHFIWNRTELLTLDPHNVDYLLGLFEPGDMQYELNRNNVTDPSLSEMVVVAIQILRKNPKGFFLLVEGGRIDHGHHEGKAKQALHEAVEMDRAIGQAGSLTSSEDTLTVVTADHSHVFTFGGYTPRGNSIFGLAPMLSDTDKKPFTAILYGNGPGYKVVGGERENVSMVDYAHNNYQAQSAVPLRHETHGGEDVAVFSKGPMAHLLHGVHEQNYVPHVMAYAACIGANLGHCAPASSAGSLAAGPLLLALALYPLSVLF"}}, "note": "The source made the active and inactive calls."}
{"smiles": "Cc1cc(C)nc(N(C#N)Cc2cccc([N+](=O)[O-])c2)n1", "values": [{"measurement": "AC50", "setting": "[1]", "result": "4.72 µM (active)"}]}
{"smiles": "COc1ccc(C(=O)O/N=C(\\N)c2ccccn2)cc1", "values": [{"measurement": "AC50", "setting": "[2]", "result": "19.4 µM (active)"}, {"measurement": "AC50", "setting": "[3]", "result": "30 µM (active)"}, {"measurement": "AC50", "setting": "[4]", "result": "2.26 µM (active)"}, {"measurement": "AC50", "setting": "[5]", "result": "11.9 µM (active)"}, {"measurement": "AC50", "setting": "[6]", "result": "19.8 µM (active)"}, {"measurement": "AC50", "setting": "[7]", "result": "21.6 µM (active)"}, {"measurement": "AC50", "setting": "[8]", "result": "7.65 µM (active)"}, {"measurement": "EC50", "setting": "[9]", "result": "0.962 µM (active)"}]}
{"smiles": "Cc1sc(NC(=O)c2ccco2)nc1-c1ccc2c(c1)CC(C)N2C(=O)C1CC1", "note": "(stereo not given)", "values": [{"measurement": "EC50", "setting": "[10]", "result": "7.02 µM (active)"}, {"measurement": "EC50", "setting": "[11]", "result": "7.22 µM (active)"}, {"measurement": "EC50", "setting": "[12]", "result": "30.2 µM (inactive)"}]}
{"smiles": "Clc1nc(NCCc2ccccc2)c2ncn(-c3ccccc3)c2n1", "values": [{"measurement": "AC50", "setting": "Cytochrome P450 2D6", "result": "3.98 µM (inconclusive)"}, {"measurement": "AC50", "setting": "Cytochrome P450 2C9", "result": "7.94 µM (inconclusive)"}]}
{"smiles": "O=C(NNc1c2ccccc2nc2ccccc12)c1ccc(O)cc1O", "values": [{"measurement": "EC50", "setting": "Streptococcus", "result": "23.7 µM (active)"}, {"measurement": "IC50", "setting": "[13]", "result": "13.3 µM (active)"}, {"measurement": "EC50", "setting": "[14]", "result": "2.59 µM (active)"}, {"measurement": "EC50", "setting": "Streptokinase A", "result": "> 150 µM (not active)"}, {"measurement": "IC50", "setting": "Nonstructural protein 1", "result": "32.1 µM (active)"}, {"measurement": "AC50", "setting": "[15]", "result": "0.062 µM (active)"}, {"measurement": "IC50", "setting": "[16]", "result": "> 50 µM (not active)"}, {"measurement": "IC50", "setting": "[17]", "result": "> 50 µM (not active)"}]}
{"smiles": "Cc1nsc(N)c1C(=O)O", "values": [{"measurement": "EC50", "setting": "[18]", "result": "> 55.7 µM (not active)"}, {"measurement": "EC50", "setting": "[19]", "result": "> 55.7 µM (not active)"}]}
{"smiles": "COc1ccccc1CNC(=O)C1(NC(=O)Nc2ccc(C)cc2)CCCCC1", "values": [{"measurement": "EC50", "setting": "[20]", "result": "37.3 µM (active)"}]}
